Consider one molecule from patent publication EP1889615A2, “Formulations for oral administration with a health promoting effect on the osteoarticular and muscleskeleton apparatus” (ROTTAPHARM S.P.A., priority 2006, dated 2008).

The test system of the assay is PGE2. Kind of assay: Rabbit chondrocytes: IL-1β-stimulated production of PGE2 (a COX-2 marker). Conditions: for %Diff. vs control: PGE2, control = IL-1β. The assay is classed as cell-based, New Zealand white rabbits. The protocol:
Joint cartilage chondrocytes, obtained from New Zealand white rabbits, have been cultured using the technique described by Berenbaum [1994]. […] The test products have been added 20 minutes prior to stimulation. On completion of stimulation, the supernatant liquid has been collected and stored at -80°C until analysis. PGE2 in the culture medium has been measured using a radio-immunological method. The production of PGE2 in this model is a marker of the activity of the cyclooxygenases induced (COX-2) in cartilage from the proinflammatory stimulus represented by IL-1β.

Where [1] appears, read: 1 µM (Man, ASS as mangostin; ASS 1 = Man 1 + CGS 10).

On to `N[C@H]1C(O)O[C@H](CO)[C@@H](O)[C@@H]1O.N[C@H]1C(O)O[C@H](CO)[C@@H](O)[C@@H]1O.O=S(=O)(O)O.[Cl-].[Cl-].[Na+].[Na+]` (stereo partly shown) [CGS, Crystalline Glucosamine Sulphate], for which the PGE2 is, setting by setting: under setting [1], 200 ng/mL; (3 µM (Man as mangostin)) 180 ng/mL; (10 µM) 210 ng/mL. Also, the “%Diff. vs control” value was 6.4% under setting [1], -4.3% (3 µM (Man as mangostin)) and -11.7% (10 µM). Further, the “inhibitory or stimulatory activity” value (PGE2, concentrations of 1, 3 or 10 µM) is on record as “no significant inhibitory or stimulatory activity”.
